Experimental data as given in patent US20200069648A1, “HALOALLYLAMINE PYRAZOLE DERIVATIVE INHIBITORS OF LYSYL OXIDASES AND USES THEREOF” (Pharmaxis Ltd., priority 2017, published 2020).
Where a name gives a salt, the structure may show the parent alone.

Tested on: CCl4 induced liver fibrosis
Assay: CCl4 induced liver fibrosis model
Type: in vivo
Conditions: mice, CCl4 i.p. twice per week for 6 weeks; 0.1-100 mg/Kg; compared with vehicle-treated group
Description: An analysis of the use of LOXL2 inhibitors to treat inflammatory/fibrotic diseases is performed through the use of a CCl4 induced liver fibrosis model. Liver injury is frequently followed by complete parenchymal regeneration due to regenerative potency of hepatocytes. Continuous liver injury due to the administration of CCl4 leads to extracellular matrix accumulation, accompanied by recurrent hepatocyte necrosis, inflammation, and regenerative processes, causing liver fibrosis and consequently liver cirrhosis (see Natsume, M., et al., Attenuated liver fibrosis and depressed serum albumin levels in carbon tetrachloride-treated IL-6-deficient mice. J. Leukoc. Biol., 1999, 66, 601-608 also See Yao, Q, Y., et al. Inhibition by curcumin of multiple sites of the transforming growth factor-beta1 signalling pathway ameliorates the progression of liver fibrosis induced by carbon tetrachloride in rats. BMC Complement Altern Med. 2012 Sep. 16; 12(1):156.).
Mice are injected intraperitoneally with CCl4 (i.p.) 1 ml/kg 25% CCl4 in olive oil, twice per week for a total period of 6 weeks. Compound 15 is given 0.1-100 mg/Kg throughout the period of the experimental procedure or only 3 weeks after CCl4 administration and then throughout the entire study.

In the case of `Cc1nn(C/C(F)=C/CN)c(C)c1Cc1ccc(S(=O)(=O)N(C)C)c(Cl)c1` [Compound 15, (Z)-4-((1-(4-amino-2-fluorobut-2-en-1-yl)-3,5-dimethyl-1H-pyrazol-4-yl)methyl)-2-chloro-N,N-dimethylbenzenesulfonamide hydrochloride], the “reduction in liver fibrosis by liver sirius red staining with quantification” value was “up to 50%”.
